Laboratory results published in patent US10428080B2, “TBK/IKK inhibitor compounds and uses thereof” (Merck Patent GmbH, priority 2015, dated 2019).

Tests used:
IKKε = molecular target: T1, IKKε (Homo sapiens, UniProt Q14164); assay: IKKe Biochemical Assay; conditions: read-out: IKKε IC50
T1 sequence (Q14164 1-716): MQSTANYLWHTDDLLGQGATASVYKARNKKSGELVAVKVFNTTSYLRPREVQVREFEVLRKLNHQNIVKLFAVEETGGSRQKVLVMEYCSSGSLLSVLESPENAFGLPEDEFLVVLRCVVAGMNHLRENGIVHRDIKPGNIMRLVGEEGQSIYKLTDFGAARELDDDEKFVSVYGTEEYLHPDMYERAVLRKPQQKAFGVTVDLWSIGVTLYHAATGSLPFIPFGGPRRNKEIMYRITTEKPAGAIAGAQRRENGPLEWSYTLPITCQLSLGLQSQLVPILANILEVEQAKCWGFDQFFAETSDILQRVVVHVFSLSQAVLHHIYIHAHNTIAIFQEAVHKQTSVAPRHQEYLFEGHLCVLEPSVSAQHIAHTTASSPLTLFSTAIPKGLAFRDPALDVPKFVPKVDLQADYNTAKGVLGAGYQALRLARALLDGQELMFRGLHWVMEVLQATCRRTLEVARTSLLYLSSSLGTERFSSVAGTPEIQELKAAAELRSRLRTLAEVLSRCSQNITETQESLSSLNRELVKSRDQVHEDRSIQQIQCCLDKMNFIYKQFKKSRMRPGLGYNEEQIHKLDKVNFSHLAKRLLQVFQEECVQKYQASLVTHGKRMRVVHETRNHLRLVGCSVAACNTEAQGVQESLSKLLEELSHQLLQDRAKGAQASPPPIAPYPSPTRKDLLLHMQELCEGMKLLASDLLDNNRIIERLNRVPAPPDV
Method in brief: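 Activity was measured as mobility-shift separation of phosphorylated from unphosphorylated substrate on a LabChip EZ Reader. Compound was titrated from 30 uM final in 10 points, 1:4 steps, with 1% DMSO, and enzyme plus substrate reacted 90 min at 25° C before stop buffer. Control wells held 10 uM staurosporine.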

TBK1 = molecular target: T2, TBK1 (Homo sapiens, UniProt Q9UHD2); assay: TBK Biochemical Assay; conditions: read-out: TBK1 IC50
T2 sequence (Q9UHD2 1-729): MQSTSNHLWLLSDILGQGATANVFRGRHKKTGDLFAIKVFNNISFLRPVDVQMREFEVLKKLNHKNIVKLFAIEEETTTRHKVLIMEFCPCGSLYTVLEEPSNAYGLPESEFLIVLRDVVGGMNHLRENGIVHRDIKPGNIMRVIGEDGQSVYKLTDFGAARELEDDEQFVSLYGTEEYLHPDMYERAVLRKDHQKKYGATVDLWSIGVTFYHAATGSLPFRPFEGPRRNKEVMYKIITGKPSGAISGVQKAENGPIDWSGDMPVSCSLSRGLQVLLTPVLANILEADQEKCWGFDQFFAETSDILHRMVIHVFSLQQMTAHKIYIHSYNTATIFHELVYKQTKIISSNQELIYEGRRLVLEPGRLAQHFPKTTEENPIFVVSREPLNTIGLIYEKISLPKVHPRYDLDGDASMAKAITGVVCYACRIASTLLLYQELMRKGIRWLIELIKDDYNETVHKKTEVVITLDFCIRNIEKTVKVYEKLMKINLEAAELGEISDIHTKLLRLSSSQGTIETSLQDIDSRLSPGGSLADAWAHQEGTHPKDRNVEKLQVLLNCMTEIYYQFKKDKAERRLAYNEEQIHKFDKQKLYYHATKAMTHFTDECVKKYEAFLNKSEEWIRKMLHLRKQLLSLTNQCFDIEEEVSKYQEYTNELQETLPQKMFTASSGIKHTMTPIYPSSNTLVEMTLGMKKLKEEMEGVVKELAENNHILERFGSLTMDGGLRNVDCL
Method in brief: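 Caliper LabChip mobility-shift readout of substrate and product after 90 min of TBK1 reaction at 25° C and stop-buffer addition. Compounds tested in 1:4 serial dilution over 10 points from 30 uM final at 1% DMSO; staurosporine 10 uM final defines full inhibition.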

[1] = test system: phosphorylation of the IRF-3 protein in MDA-MB-468 cells; assay: pIRF3 immunocytochemistry cell based assay; conditions: Homo sapiens; MDA-MB-468 cells, Poly(I:C) stimulation; read-out: pIRF3 IC50
Method in brief: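 After 2 h stimulation with Poly(I:C) (10 ug/ml), following 1 h compound pre-treatment (10-point, 3-fold dilution, top 10 uM), MDA-MB-468 cells were fixed and stained with anti-pIRF3 antibody. pIRF3 fluorescence was normalized to PI staining or cell count on an Acumen cytometer. IC50 curves were derived from this.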

Structure (SMILES) | IC50 (IKKε) [nM] | IC50 (TBK1) [nM] | IC50 [1] [nM]
COc1cc(C(=O)N2CCCCN2C)ccc1-c1cc2nccc(-c3ccc(OC4CCOCC4)c(C#N)c3)c2o1 [Compound 478, 5-{2-[2-Methoxy-4-(2-methyl-tetrahydro-pyridazine-1-carbonyl)-phenyl]-furo[3,2-b]pyridin-7-yl}-2-(tetrahydro-pyran-4-yloxy)-benzonitrile] | < 100 | < 100 | 100 to 1000
CCC(CO)(CO)NC(=O)c1ccc(-c2cc3nccc(-c4ccc(OC5CCOCC5)c(C#N)c4)c3o2)c(OC)c1 [Compound 479, N-(1,1-Bis-hydroxymethyl-propyl)-4-{7-[3-cyano-4-(tetrahydro-pyran-4-yloxy)-phenyl]-furo[3,2-b]pyridin-2-yl}-3-methoxy-benzamide] | < 100 | < 100 | 100 to 1000
COc1cc(C(=O)N(C)C(C)(C)CO)ccc1-c1cc2nccc(-c3ccc(OC4CCOCC4)c(C#N)c3)c2o1 [Compound 480, 4-{7-[3-Cyano-4-(tetrahydro-pyran-4-yloxy)-phenyl]-furo[3,2-b]pyridin-2-yl}-N-(2-hydroxy-1,1-dimethyl-ethyl)-3-methoxy-N-methyl-benzamide] | < 100 | < 100 | 100 to 1000
COc1cc(C(=O)N(C)C(C)(C)C)ccc1-c1cc2nccc(-c3ccc(OC4CCOCC4)c(C#N)c3)c2o1 [Compound 481, N-tert-Butyl-4-{7-[3-cyano-4-(tetrahydro-pyran-4-yloxy)-phenyl]-furo[3,2-b]pyridin-2-yl}-3-methoxy-N-methyl-benzamide] | < 100 | < 100 | 100 to 1000
COc1cc(C(=O)N2CCCCN2)ccc1-c1cc2nccc(-c3ccc(OC4CCOCC4)c(C#N)c3)c2o1 [Compound 482, 5-{2-[2-Methoxy-4-(tetrahydro-pyridazine-1-carbonyl)-phenyl]-furo[3,2-b]pyridin-7-yl}-2-(tetrahydro-pyran-4-yloxy)-benzonitrile] | < 100 | < 100 | 100 to 1000
COc1cc(C(=O)N(C)CCS(C)(=O)=O)ccc1-c1cc2nccc(-c3ccc(OC4CCOCC4)c(C#N)c3)c2o1 [Compound 483, 4-{7-[3-Cyano-4-(tetrahydro-pyran-4-yloxy)-phenyl]-furo[3,2-b]pyridin-2-yl}-N-(2-methanesulfonyl-ethyl)-3-methoxy-N-methyl-benzamide] | < 100 | < 100 | < 100
COc1cc(C(=O)N(C)C)ccc1-c1cc2nccc(-c3ccc(OC4CN(C)C4)c(C#N)c3)c2o1 [Compound 484, 4-{7-[3-Cyano-4-(1-methyl-azetidin-3-yloxy)-phenyl]-furo[3,2-b]pyridin-2-yl}-3-methoxy-N,N-dimethyl-benzamide] | < 100 | < 100 | < 100
COc1cc(C(=O)N(C)C)ccc1-c1cc2nccc(-c3ccc(OC4CN(C(C)C)C4)c(C#N)c3)c2o1 [Compound 485, 4-{7-[3-Cyano-4-(1-isopropyl-azetidin-3-yloxy)-phenyl]-furo[3,2-b]pyridin-2-yl}-3-methoxy-N,N-dimethyl-benzamide] | 1000 to 5000 | 1000 to 5000 | 1000 to 5000
COc1cc(C(=O)N(C)C)cnc1-c1cc2nccc(-c3ccc(OC4CCOCC4F)c(C#N)c3)c2o1 (stereo not drawn) [Compound 486, 6-{7-[3-Cyano-4-(3-fluoro-tetrahydro-pyran-4-yloxy)-phenyl]-furo[3,2-b]pyridin-2-yl}-5-methoxy-N,N-dimethyl-nicotinamide] | < 100 | < 100 | < 100
COc1cc(C(=O)N(C)C)cnc1-c1cc2nccc(-c3ccc(OC4CCNC4)c(C#N)c3)c2o1 (stereo not drawn) [Compound 487, 6-{7-[3-Cyano-4-(pyrrolidin-3-yloxy)-phenyl]-furo[3,2-b]pyridin-2-yl}-5-methoxy-N,N-dimethyl-nicotinamide] | 100 to 1000 | 100 to 1000 | 100 to 1000
COc1cc(C(=O)N(C)C)cnc1-c1cc2nccc(-c3ccc(N4CCC(F)C4)c(C#N)n3)c2o1 (stereo not drawn) [Compound 488, 2-{7-[6-Cyano-6-5-(3-fluoro-pyrrolidin-1-yl)-pyridin-3-yl]-furo[3,2-b]pyridin-2-yl}-5-methoxy-N,N-dimethyl-nicotinamide] | < 100 | < 100 | 100 to 1000
COc1cc(C(=O)N(C)C)cnc1-c1cc2nccc(-c3cnc(N4CCC(F)C4)c(C#N)c3)c2o1 (stereo not drawn) [Compound 489] | < 100 | < 100 | 100 to 1000

More lines, now with the values ahead:

IC50 (IKKε) [nM] | IC50 (TBK1) [nM] | IC50 [1] [nM] | Structure (SMILES)
< 100 | < 100 | 100 to 1000 | COc1cc(C(=O)N2CCC(O)C2)ccc1-c1cc2nccc(-c3ccc(OC4CCOCC4)c(C#N)c3)c2o1 (stereo not drawn) [Compound 492, 5-{2-[4-(3-Hydroxy-pyrrolidine-1-carbonyl)-2-methoxy-phenyl]-furo[3,2-b]pyridin-7-yl}-2-(tetrahydro-pyran-4-yloxy)-benzonitrile]
< 100 | < 100 | 100 to 1000 | COc1cc(C(=O)N[C@H]2CCN(C)C2)ccc1-c1cc2nccc(-c3ccc(OC4CCOCC4)c(C#N)c3)c2o1 [Compound 493, 5-{2-[4-(N—((S)-methyl-pyrrolidin-3-yl)-1-carbonyl)-2-methoxy-phenyl]-furo[3,2-b]pyridin-7-yl}-2-(tetrahydro-pyran-4-yloxy)-benzonitrile]
< 100 | < 100 | 100 to 1000 | COc1cc(C(=O)N[C@@H]2CCN(C)C2)ccc1-c1cc2nccc(-c3ccc(OC4CCOCC4)c(C#N)c3)c2o1 [Compound 494, 5-{2-[4-(N—((R)-methyl-pyrrolidin-3-yl)-1-carbonyl)-2-methoxy-phenyl]-furo[3,2-b]pyridin-7-yl}-2-(tetrahydro-pyran-4-yloxy)-benzonitrile]
< 100 | < 100 | 100 to 1000 | COc1cc(C(=O)N2CC(O)C2)ccc1-c1cc2nccc(-c3ccc(N4CC[C@@H](F)C4)c(C#N)c3)c2o1 [Compound 497, 2-((R)-3-Fluoro-pyrrolidin-1-yl)-5-{2-[4-(3-hydroxy-azetidine-1-carbonyl)-2-methoxy-phenyl]-furo[3,2-b]pyridin-7-yl}-benzonitrile]
< 100 | 100 to 1000 | 100 to 1000 | COc1cc(C(=O)NC2C3COCC32)ccc1-c1cc2nccc(-c3ccc(N4CC[C@@H](F)C4)c(C#N)c3)c2o1 (stereo partly drawn) [Compound 498]
< 100 | < 100 | 100 to 1000 | COc1cc(C(=O)NCC(C)(C)N(C)C)ccc1-c1cc2nccc(-c3ccc(NC4CCOCC4)c(C#N)c3)c2o1 [Compound 499, 4-{7-[3-Cyano-4-(tetrahydro-pyran-4-ylamino)-phenyl]-furo[3,2-b]pyridin-2-yl}-N-(2-dimethylamino-2-methyl-propyl)-3-methoxy-benzamide]
< 100 | < 100 | 100 to 1000 | COc1cc(C(=O)NCC(C)(C)N(C)C)ccc1-c1cc2nccc(-c3ccc(OC4CCOCC4)c(C#N)c3)c2o1 [Compound 500, 4-{7-[3-Cyano-4-(tetrahydro-pyran-4-yloxy)-phenyl]-furo[3,2-b]pyridin-2-yl}-N-(2-dimethylamino-2-methyl-propyl)-3-methoxy-benzamide]
